Reference: ChEMBL document CHEMBL5465560, “Selectivity Literature for EUbOPEN Chemogenomic Library” (2024)
Each block holds one compound with its values, some of them ahead of it.

How the values were obtained:
[1] = biological target: Dual specificity mitogen-activated protein kinase kinase 1 (Homo sapiens, UniProt Q02750); details: at 10 µM
[2] = biological target: cAMP-dependent protein kinase catalytic subunit alpha (Homo sapiens, UniProt P17612); assay: Selectivity interaction (Kinase panel (33PanQinase(R) Activity Assay)) EUB0000877a PRKACA
[3] = biological target: T1, Testis-specific serine/threonine-protein kinase 3 (Homo sapiens) (UniProt Q96PN8); assay: Selectivity interaction (Kinase panel (Z-LYTE Assay)) EUB0001632a TSSK3; details: at 10 µM
T1 sequence (whole entry): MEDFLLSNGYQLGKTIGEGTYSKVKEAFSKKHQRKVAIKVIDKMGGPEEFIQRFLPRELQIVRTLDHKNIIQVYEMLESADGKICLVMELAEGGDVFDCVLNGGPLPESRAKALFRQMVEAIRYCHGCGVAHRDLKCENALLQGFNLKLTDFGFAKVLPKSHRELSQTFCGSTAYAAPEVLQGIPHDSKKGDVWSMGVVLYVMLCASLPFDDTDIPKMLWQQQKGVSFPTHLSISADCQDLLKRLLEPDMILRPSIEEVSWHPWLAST

[4] = biological target: Serine/threonine-protein kinase WNK3 (Homo sapiens) (UniProt Q9BYP7); assay: Selectivity interaction (LanthaScreen Eu Kinase Binding Assay) EUB0001632a WNK3; details: at 10 µM
[5] = biological target: T2, Serine/threonine-protein kinase DCLK2 (Homo sapiens) (UniProt Q8N568); assay: Selectivity interaction (ProQinase) EUB0000171b DCLK2
T2 sequence (whole entry): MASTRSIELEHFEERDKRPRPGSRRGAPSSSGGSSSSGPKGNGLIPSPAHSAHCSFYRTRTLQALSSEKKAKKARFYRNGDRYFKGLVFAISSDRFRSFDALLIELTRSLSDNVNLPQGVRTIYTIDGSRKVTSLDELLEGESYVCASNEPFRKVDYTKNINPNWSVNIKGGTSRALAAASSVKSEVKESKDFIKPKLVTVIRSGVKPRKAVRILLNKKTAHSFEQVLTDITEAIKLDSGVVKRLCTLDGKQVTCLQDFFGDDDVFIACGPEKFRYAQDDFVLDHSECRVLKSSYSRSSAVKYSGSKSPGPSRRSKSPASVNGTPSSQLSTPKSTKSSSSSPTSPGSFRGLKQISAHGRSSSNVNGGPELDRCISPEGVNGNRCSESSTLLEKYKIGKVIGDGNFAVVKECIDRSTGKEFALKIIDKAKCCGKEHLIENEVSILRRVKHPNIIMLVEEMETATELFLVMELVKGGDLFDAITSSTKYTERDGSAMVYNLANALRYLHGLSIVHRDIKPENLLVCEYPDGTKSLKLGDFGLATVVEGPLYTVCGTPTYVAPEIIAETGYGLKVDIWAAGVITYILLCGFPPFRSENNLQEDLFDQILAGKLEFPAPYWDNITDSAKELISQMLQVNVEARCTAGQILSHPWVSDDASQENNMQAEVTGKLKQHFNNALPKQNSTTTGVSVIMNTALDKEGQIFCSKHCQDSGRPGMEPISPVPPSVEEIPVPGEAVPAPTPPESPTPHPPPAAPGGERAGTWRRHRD

[6] = biological target: Homeodomain-interacting protein kinase 2 (Homo sapiens, UniProt Q9H2X6); assay: Selectivity interaction (KinomeScan (DiscoverX)) EUB0000045b HIPK2
Homeodomain-interacting protein kinase 2, sequence (Q9H2X6 whole entry, looked up): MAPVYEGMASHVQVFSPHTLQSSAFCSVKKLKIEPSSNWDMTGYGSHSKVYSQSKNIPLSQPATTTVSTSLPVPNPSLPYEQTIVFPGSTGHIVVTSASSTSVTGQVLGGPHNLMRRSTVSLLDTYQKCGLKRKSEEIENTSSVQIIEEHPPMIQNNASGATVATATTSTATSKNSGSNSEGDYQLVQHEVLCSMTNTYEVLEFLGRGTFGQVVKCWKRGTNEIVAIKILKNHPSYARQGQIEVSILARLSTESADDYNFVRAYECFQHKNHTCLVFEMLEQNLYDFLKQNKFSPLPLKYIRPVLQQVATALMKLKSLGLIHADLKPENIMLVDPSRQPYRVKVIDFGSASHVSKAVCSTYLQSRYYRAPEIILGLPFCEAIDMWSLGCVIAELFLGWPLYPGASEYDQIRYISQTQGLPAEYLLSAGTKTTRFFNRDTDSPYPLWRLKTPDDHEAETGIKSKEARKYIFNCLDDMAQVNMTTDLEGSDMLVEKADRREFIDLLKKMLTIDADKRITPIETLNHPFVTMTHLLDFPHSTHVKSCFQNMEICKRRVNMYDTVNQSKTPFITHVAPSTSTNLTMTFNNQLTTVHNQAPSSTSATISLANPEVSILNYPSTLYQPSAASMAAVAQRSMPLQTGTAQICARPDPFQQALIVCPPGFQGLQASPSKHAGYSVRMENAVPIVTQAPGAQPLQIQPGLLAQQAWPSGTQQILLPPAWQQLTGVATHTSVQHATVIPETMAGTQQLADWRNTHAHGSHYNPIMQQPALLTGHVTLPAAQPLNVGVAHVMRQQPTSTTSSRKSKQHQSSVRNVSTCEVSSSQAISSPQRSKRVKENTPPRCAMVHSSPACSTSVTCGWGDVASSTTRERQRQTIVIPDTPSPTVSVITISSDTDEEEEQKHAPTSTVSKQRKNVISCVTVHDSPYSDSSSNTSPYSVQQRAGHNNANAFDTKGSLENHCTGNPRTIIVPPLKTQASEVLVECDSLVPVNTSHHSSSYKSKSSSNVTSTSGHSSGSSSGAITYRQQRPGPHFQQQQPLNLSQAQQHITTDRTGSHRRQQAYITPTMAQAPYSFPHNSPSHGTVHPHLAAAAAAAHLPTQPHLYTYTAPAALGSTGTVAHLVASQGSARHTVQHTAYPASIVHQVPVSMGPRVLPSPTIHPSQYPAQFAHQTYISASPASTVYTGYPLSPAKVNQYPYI

[7] = tested on: Leucine-rich repeat serine/threonine-protein kinase 2 (Homo sapiens), Q5S007 [G2019S]; assay: (§1) Selectivity interaction (KinomeScan (DiscoverX)) EUB0000045b LRRK2
Leucine-rich repeat serine/threonine-protein kinase 2 (Homo sapiens), Q5S007 [G2019S], sequence (Q5S007 whole entry G2019S): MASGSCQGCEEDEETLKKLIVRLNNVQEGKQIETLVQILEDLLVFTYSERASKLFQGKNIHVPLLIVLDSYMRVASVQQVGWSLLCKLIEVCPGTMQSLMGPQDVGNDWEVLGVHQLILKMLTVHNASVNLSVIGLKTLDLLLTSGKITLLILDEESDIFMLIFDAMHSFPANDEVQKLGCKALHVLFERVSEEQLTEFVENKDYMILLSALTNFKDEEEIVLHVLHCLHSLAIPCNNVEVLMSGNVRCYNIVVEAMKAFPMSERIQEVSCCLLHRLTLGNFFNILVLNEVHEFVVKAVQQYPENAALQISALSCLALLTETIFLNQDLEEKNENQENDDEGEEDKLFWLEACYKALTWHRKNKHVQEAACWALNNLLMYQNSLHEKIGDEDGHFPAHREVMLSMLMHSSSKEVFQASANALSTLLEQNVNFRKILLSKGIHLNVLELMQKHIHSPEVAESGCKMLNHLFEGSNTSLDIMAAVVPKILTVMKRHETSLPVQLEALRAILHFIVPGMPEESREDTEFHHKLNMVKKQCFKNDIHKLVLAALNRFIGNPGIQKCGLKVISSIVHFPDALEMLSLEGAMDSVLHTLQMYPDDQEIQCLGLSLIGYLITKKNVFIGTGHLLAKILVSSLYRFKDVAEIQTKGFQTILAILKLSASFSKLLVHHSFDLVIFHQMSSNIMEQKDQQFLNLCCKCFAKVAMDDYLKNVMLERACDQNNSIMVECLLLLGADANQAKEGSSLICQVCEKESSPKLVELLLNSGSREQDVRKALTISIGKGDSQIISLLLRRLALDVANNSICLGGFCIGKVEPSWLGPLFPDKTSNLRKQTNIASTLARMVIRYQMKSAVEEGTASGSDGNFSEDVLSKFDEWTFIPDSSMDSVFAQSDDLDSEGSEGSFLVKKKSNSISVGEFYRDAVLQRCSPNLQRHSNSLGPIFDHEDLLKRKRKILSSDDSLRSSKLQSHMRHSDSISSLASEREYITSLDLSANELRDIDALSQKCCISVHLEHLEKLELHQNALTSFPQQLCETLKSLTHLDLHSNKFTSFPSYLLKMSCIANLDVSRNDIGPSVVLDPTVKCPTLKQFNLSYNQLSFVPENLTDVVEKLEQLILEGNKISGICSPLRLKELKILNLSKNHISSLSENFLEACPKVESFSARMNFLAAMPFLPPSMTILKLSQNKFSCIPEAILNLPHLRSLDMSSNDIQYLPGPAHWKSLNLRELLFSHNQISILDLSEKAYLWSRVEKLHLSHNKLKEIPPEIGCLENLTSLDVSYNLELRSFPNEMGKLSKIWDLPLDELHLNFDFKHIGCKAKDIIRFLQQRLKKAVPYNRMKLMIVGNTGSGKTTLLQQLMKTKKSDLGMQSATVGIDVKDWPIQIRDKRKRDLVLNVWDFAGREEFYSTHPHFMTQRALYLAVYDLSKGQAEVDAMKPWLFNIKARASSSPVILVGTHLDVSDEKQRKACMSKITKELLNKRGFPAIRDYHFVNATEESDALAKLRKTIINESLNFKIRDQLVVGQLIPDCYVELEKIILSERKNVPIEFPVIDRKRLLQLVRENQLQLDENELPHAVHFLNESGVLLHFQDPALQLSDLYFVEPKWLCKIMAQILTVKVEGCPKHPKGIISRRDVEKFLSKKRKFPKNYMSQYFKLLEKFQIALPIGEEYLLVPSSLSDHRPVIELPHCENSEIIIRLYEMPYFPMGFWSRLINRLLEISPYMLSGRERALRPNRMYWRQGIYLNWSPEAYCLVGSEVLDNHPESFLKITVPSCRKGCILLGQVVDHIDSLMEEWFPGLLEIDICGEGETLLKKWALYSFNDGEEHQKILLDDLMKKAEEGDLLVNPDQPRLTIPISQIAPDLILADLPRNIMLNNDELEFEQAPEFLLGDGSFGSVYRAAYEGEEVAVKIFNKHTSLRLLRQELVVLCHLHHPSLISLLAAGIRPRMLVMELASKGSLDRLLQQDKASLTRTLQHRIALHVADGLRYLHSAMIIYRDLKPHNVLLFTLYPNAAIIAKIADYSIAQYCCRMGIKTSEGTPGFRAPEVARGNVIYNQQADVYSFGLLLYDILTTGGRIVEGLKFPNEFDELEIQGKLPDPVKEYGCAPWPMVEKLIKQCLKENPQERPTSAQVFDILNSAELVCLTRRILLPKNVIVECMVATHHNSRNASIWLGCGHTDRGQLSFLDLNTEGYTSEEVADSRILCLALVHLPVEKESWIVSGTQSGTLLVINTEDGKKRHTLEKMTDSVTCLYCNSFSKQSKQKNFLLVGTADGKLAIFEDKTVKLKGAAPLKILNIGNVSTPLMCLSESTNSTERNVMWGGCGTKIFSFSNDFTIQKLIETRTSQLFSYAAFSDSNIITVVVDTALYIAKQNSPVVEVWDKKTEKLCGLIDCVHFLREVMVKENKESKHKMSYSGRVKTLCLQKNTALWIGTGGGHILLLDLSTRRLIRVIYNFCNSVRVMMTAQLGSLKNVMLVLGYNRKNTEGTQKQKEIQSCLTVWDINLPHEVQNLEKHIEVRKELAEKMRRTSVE

[8] = biological target: Leucine-rich repeat serine/threonine-protein kinase 2 (Homo sapiens, UniProt Q5S007); assay: as §1
Leucine-rich repeat serine/threonine-protein kinase 2, sequence (Q5S007 whole entry): as the sequence (Q5S007 whole entry G2019S) above, with S2019G counted along it

[9] = biological target: Tyrosine-protein kinase SYK (Homo sapiens, UniProt P43405); assay: Selectivity interaction (KinomeScan (DiscoverX)) EUB0000045b SYK
[10] = biological target: T3, Lymphokine-activated killer T-cell-originated protein kinase (Homo sapiens) (UniProt Q96KB5); assay: Selectivity interaction (Kinase panel (DSF assay)) EUB0001559a PBK
T3 sequence (whole entry): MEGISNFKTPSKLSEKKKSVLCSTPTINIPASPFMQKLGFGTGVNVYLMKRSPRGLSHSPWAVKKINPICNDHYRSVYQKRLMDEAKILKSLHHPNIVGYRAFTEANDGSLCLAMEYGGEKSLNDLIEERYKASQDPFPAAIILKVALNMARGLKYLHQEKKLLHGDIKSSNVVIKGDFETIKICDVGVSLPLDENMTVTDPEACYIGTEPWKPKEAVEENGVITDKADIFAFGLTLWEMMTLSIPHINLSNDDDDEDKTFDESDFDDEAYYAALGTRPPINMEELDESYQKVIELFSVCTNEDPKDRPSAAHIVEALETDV

[11] = biological target: Tyrosine-protein kinase Lyn (Homo sapiens, UniProt P07948); assay: Selectivity interaction (SelectScreen profiling (Invitrogen)) EUB0000607a LYN; details: at 2 µM
Tyrosine-protein kinase Lyn, sequence (P07948 2-512 limits assumed): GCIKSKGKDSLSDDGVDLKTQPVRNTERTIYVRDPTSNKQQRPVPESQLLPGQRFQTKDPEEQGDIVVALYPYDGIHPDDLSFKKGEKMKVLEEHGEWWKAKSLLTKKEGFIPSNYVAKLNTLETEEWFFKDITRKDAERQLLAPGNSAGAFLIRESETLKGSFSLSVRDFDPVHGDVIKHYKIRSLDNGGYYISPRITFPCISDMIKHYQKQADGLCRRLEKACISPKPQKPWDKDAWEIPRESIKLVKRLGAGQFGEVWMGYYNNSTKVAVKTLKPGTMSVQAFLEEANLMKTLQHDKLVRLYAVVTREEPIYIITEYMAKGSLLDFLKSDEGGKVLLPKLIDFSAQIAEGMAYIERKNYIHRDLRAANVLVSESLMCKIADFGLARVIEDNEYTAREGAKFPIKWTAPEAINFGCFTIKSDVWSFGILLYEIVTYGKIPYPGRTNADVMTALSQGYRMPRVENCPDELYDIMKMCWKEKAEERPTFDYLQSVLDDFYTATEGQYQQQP

Dual specificity mitogen-activated protein kinase kinase 1, sequence (Q02750 whole entry): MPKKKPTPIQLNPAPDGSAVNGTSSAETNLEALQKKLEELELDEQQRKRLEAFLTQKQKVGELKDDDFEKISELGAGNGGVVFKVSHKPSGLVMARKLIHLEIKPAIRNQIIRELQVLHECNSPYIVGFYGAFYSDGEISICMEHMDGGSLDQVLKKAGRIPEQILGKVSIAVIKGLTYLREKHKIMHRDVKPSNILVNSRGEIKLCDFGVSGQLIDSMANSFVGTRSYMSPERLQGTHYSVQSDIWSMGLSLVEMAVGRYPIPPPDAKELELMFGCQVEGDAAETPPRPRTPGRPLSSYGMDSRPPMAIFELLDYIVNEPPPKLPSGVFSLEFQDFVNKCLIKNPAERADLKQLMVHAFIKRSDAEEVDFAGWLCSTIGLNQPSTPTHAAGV

SMILES: CCC(=O)N1CC[C@H](Nc2ncnc3c2CN(c2cnc(OC)c(C(F)(F)F)c2)CC3)C1 [LENIOLISIB]
IC50 [2]: > 10 µM

SMILES: C=CC(=O)Nc1cc(-n2c(=O)ccc3cnc4ccc(-c5ccc(NS(C)(=O)=O)cc5)cc4c32)ccc1C
% of control ([6]; at 1 µM): 100%
% of control ([6]; at 10 µM): 100%
% of control ([7]; at 1 µM): 100%
% of control ([7]; at 10 µM): 62%
% of control ([8]; at 1 µM): 100%
% of control ([8]; at 10 µM): 100%
% of control ([9]; at 1 µM): 100%
% of control ([9]; at 10 µM): 96%

SMILES: CN(C(=O)c1cnn2cccnc12)c1cc2c(cc1N1CCOCC1)C(=O)N(C[C@@H](F)C(C)(C)O)C2
dTM [10]: 0.7 K

SMILES: CNC(=O)Nc1ccc(-c2nc(N3CC4CCC(C3)O4)c3cnn(C4CCC5(CC4)OCCO5)c3n2)cc1
% of inhibition [11]: 7%

Further lines, results first:

% of control [1]: 28%
SMILES: CC(=O)Nc1cccc(-n2c(=O)n(C3CC3)c(=O)c3c(Nc4ccc(I)cc4F)n(C)c(=O)c(C)c32)c1

% of control [3]: 4.44%
% of inhibition [4]: -35.1%
SMILES: Cn1cc(-n2cnc3c(NCc4nc5cc(Cl)c(Cl)cc5[nH]4)nc(N4CCOCC4)nc32)cn1

% of control ([5]; at 1 µM): 95%
% of control ([5]; at 5 µM): 94%
SMILES: C=CC(=O)Nc1cccc(C(=O)Nc2ccc(Nc3cc(-c4[nH]c(SC)nc4C)ccn3)cc2)c1
